Test results as given in US20190000079A1, “Methods and Formulation for Treatment of Nuts, Seeds, Grains, Cereals, Plant Growth Media, and Plants” (Lipotec Laboratories, LLC, priority 2015, published 2019).

Key:
Assay in all cases: Growth experiment, coated vs uncoated seeds planted in soil
corn = assay type: in vivo
Description: (§1) Groups of coated and uncoated soybeans, corn, sunflower, and turfgrass were planted in soil and monitored for germination.

sunflower = assay type: in vivo
Description: as §1

soybeans = assay type: in vivo, soybean
Description: as §1

## COc1cc(/C=C/C(=O)CC(=O)/C=C/c2ccc(O)c(OC)c2)ccc1O [curcumin, Curcumin]
corn; corn seeds coated with DMSO and curcumin, planted in soil, same as uncoated
  germination time of coated seeds: 2 days
corn; corn, after 3 weeks
  height and diameter, coated vs uncoated: equal height and diameter
sunflower; sunflower seeds coated with DMSO and curcumin, planted in soil, same as uncoated
  germination time of coated seeds: 2 days
sunflower; sunflower, after 3 weeks
  height and diameter, coated vs uncoated: equal height and diameter
soybeans; soybean seeds coated with DMSO and curcumin, planted in soil, same as uncoated
  germination time of coated seeds: 2 days
soybeans; soybean, after 3 weeks
  height and diameter, coated vs uncoated: equal height and diameter
